Laboratory results from patent publication US20250339569A1, “CARBONIC ANHYDRASE IX LIGANDS” (priority 2021, published 2025).
Starred links: 1 amine or outer side, 2 acyl side, 3 side chain; linkers in the order of their positions; H or OH if unused. Positions of bridges follow the written chain, without caps; N, C: chain ends. Non-standard residues stand in square brackets, D forms with d. Residues, ends and D or L forms follow the SMILES beside them. *: point of attachment. NH(CH2)5NHDOTA = O=C(O)CN1CCN(CC(=O)O)CCN(CC(=O)NCCCCCN*)CCN(CC(=O)O)CC1; NH(CH2)3NHDOTA = O=C(O)CN1CCN(CC(=O)O)CCN(CC(=O)NCCCN*)CCN(CC(=O)O)CC1; X3 = O=C(O)CN1CCN(CC(=O)O)CCN(CC(=O)NCCCOCCOCCOCCCN*)CCN(CC(=O)O)CC1; DOTA = O=C(O)CN1CCN(CC(=O)O)CCN(CC(=O)*)CCN(CC(=O)O)CC1; mXylylene = c1cc(C[*:1])cc(C[*:2])c1; X2 = O=C(CN1CCC(N[*:1])CC1)[*:2]; tBuAla = CC(C)(C)C[C@H](N)C(=O)O; Suc = O=C(CCC(=O)[*:2])[*:1]; Ac6c = NC1(C(=O)O)CCCCC1; Nlys = NCCCCNCC(=O)O

Key:
[1] = target: T1, CAIX-expressing human HT-29 colorectal cancer cells (Homo sapiens, UniProt Q16790); assay: FACS binding assay (IC50 determination, competition with tracer 3BP-2776 or 3BP-4149); details: FACS competition on HT-29 cells, Tracer ID 3BP-2776 (10 nM, biotin-labeled), 4° C., 1 hour; read-out: pIC50 category (activity) (converted)
T1 construct: CAIX-expressing human HT-29 colorectal cancer cells; host or cells: HT-29 human colorectal cancer cells
In short: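 HT-29 cells in FACS buffer (PBS, 1% FCS) at 500.000 cells/ml were exposed to compounds competing with a labelled tracer, with biotinylated compounds detected by 1 μg/mL APC-streptavidin for 30 min on ice. APC/Cy5 median fluorescence was read by flow cytometry and IC50 derived by 4PL fit.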

[2] = target: T2, human carbonic anhydrase IX (hCAIX-Fc) (Homo sapiens, UniProt Q16790); assay: Surface plasmon resonance assay with hCAIX-Fc; format: binding; details: 25° C.; for Kd: SPR, hCAIX-Fc captured, read-out: pKD category (activity) (converted); for t1/2 category (activity): SPR dissociation half-life, hCAIX-Fc
T2 construct: purchased SinoBliological (Sino Biological) 10107-H02H

NEP = target: T3, NEP (Homo sapiens, UniProt P08473); assay: Proteolytic stability assay against NEP; format: in vitro ADME; details: human, recombinant soluble human NEP, 100 ng/mL NEP, 10 μM compound, 37°C, read-out: % intact compound remaining after 24 h incubation
T3 construct: Recombinant soluble human NEP; purchased BioTechne, Wiesbaden, Germany
Description: (§1) To assess the stability of compounds against NEP, the compounds were subjected to an in vitro assay based on the protocol described by Edelson et al. (Edelson et al., Pulmonary pharmacology & therapeutics, 2013, 26, 229-238).
(§2) Recombinant soluble human NEP (BioTechne, Wiesbaden, Germany) at a concentration of 100 ng/mL was mixed with the compound (10 μM) and a stable internal standard (10 μM) and incubated at 37° C. After several time points, samples were taken and analyzed with LC-MS.
(§3) The activity of NEP was examined using a commercially available chromogenic substrate of NEP.

[3] = Plasma stability assay, mouse plasma; details: for remaining at 4 h, […]: mouse, plasma (K2EDTA); for % intact compound remaining (incubation time): mouse plasma, 37°C, 4 h
human CAIX = human CAIX (Homo sapiens, UniProt Q16790); assay: In vitro SPR binding assay of DPI-4452, natLu-DPI-4452 and natGa-DPI-4452 to CAIX (anti-human Fc capture); design: purchased SinoBliological (Sino Biological) 10107-H02H; details: SPR
Description: Surface Plasmon Resonance (SPR) studies were performed on a Biacore™ T200 using a ligand capture approach. Basically, anti-human Fc antibodies were immobilized on the surface of a sensor chip and CAIX was captured on the functionalized surface via its Fc Tag.
Then, each compound was injected at increasing concentrations on the captured CAIX in order to measure the in real-time interaction of the compound to its target (i.e. the captured CAIX). The in real-time monitoring of the association and dissociation of the interaction gives access to the interaction kinetics parameters (i.e. the association and dissociation rate constants and the resulting affinity constants).
• A series S CM5 sensor chip was used (Cytiva). • All reagents used for the immobilization procedure were part of the Amine Coupling Kit, type 2 and/or the Human Antibody Capture Kit (Cytiva). The running buffer (HBS-EP+) was prepared by 10-fold dilution of the stock HBS-EP+ 10× solution (Cytiva). • Anti-human Fc antibodies stock solution (0.5 mg/mL in 0.15 M NaCl) was diluted in 10 mM sodium acetate pH 5.0 to a final concentration of 25 μg/mL directly into a plastic vial 7 mm. • Amine coupling reagents were transferred into plastic vials 7 mm as follow: • 95 μL of 0.4 M 1-ethyl-3-(3-dimethylaminopropyl)carbodiimide (EDC). • 95 μL of 0.1 M N-hydroxysuccinimide (NHS). • An empty plastic vial 7 mm was added in the Biacore™ sample rack for mixing. • 150 μL of 1 M ethamolamine-HCl, pH 8.5. • Plastic vials were closed with rubber caps and the sample rack was inserted into the Biacore™ T200 sample compartment. • The Biacore™ T200 Amine Wizard was used to immobilize the anti-Human Fc antibodies on the four flow-cells of a series S CM5 sensor chip simultaneously with defined contact time of 360 seconds and flow-rate of 5 μL/min. • The immobilization procedure was performed at 25° C., following Cytiva's recommendations, as described in Table 23.
This procedure allowed to reach immobilization levels between 6000 and 9000 RU of anti-human Fc antibodies on the sensor chip surface.
• CAIX (Sino Biological, 10107-H02H) stock solution was prepared from lyophilized material reconstituted with deionized water to a concentration of 0.25 μg/mL (3.69 μM), following the supplier recommendations. • CAIX working solution was obtained after dilution of CAIX stock solution with PBS-P+1×, 0.1% DMSO to a final concentration of 200 nM directly in a Biacore™ plastic vial.
• For each measurement, the raw surface plasmon resonance response (RU) was plotted against time (s) as a sensorgram using the Biacore™ T200 Control Software. • Raw data were corrected by double referencing with subtraction of the signal of both the reference flow-cell and the blank cycle. • The association and dissociation rate constants (ka and kd, respectively), as well as the dissociation constant KD and dissociation half-life t1/2 were determined from the corrected sensorgrams by fitting the data to a 1:1 Langmuir binding model with the Biacore™ T200 evaluation software.

[4] = target: T4, Recombinant soluble human NEP (Homo sapiens, UniProt P08473); assay: Proteolytic stability assay against NEP; format: in vitro ADME; details: 100 ng/mL NEP, 10 μM compound, 37°C
T4 construct: Recombinant soluble human NEP; purchased BioTechne, Wiesbaden, Germany
Description: as §1, §2, §3

T3 sequence (P08473 52-750 limits assumed): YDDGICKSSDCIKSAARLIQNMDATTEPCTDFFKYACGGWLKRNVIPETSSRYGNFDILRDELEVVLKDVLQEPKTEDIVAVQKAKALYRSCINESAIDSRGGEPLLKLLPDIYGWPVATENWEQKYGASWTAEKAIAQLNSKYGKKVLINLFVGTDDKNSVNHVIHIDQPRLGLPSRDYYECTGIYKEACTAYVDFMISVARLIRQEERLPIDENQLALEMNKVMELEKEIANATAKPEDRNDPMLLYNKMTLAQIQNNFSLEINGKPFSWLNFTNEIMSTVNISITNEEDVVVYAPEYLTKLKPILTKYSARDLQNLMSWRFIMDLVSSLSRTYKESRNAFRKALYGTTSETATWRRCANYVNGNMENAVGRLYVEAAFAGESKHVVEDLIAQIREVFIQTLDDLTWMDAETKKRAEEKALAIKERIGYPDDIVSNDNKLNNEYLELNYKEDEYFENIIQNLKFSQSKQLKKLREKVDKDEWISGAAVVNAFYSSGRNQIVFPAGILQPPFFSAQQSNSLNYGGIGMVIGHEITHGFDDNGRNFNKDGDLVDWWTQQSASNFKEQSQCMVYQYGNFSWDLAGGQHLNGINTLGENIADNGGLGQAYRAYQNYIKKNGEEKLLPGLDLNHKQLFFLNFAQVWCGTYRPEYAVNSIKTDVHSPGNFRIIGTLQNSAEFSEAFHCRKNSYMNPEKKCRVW
T4 sequence (P08473 52-750 limits assumed): as above

CC(=O)N[C@H](C(=O)N[C@@H](Cc1ccc(O)cc1)C(=O)N[C@H]1CSCc2cccc(c2)CSC[C@@H](C(N)=O)NC(=O)[C@H](C)NC(=O)[C@H](Cc2c[nH]c3ccccc23)NC(=O)[C@H]([C@@H](C)O)NC(=O)[C@H](CC(C)C)NC(=O)[C@H](Cc2c[nH]c3ccccc23)NC(=O)[C@H](CC(=O)O)NC(=O)CN(CCCCNC(=O)CN2CCN(CC(=O)O)CCN(CC(=O)O)CCN(CC(=O)O)CC2)C(=O)[C@H](CCC(=O)O)NC1=O)C(C)C [3BP-3562, Ac-Val-Tyr-[Cys(3MeBn)-Glu-Nlys(DOTA)-Asp-Trp-Leu-Thr-Trp-Ala-Cys]-NH2] (Ac-VYCE[Nlys](DOTA)DWLTWAC-NH2; linker 3-12 via mXylylene)
IC50 [1]: < 10 nM | Kd [2]: < 10 nM | remaining at 24 h, 10 μM (NEP): > 95% | remaining at 4 h, […] [3]: 89%

CC(C)C[C@@H]1NC(=O)[C@H](Cc2cccc(NC(=O)CCCS(N)(=O)=O)c2)NC(=O)[C@H](CC(=O)O)NC(=O)[C@H]2CCCN2C(=O)[C@H](CCC(=O)O)NC(=O)[C@@H](NC(=O)[C@H](CCC(N)=O)NC(=O)CN2CCN(C(=O)CN3CCN(CC(=O)O)CCN(CC(=O)O)CCN(CC(=O)O)CC3)CC2)CSCc2cccc(c2)CSC[C@@H](C(N)=O)NC(=O)[C@H](CO)NC(=O)[C@H](Cc2c[nH]c3ccccc23)NC(=O)[C@H]([C@@H](C)O)NC1=O [^natLu-DPI-4452, metal not drawn]
affinity of binding to CAIX (human CAIX): subnanomolar affinity

CC(=O)N[C@H](C(=O)N[C@@H](Cc1ccc(O)cc1)C(=O)N[C@H]1CSCc2cccc(c2)CSC[C@@H](C(N)=O)NC(=O)[C@H](CCC(=O)NCCCNC(=O)CN2CCN(CC(=O)O)CCN(CC(=O)O)CCN(CC(=O)O)CC2)NC(=O)[C@H](Cc2c[nH]c3ccccc23)NC(=O)[C@H]([C@@H](C)O)NC(=O)[C@H](CC(C)C)NC(=O)[C@H](Cc2c[nH]c3ccccc23)NC(=O)[C@H](CC(=O)O)NC(=O)[C@H]2CCCN2C(=O)[C@H](CCC(=O)O)NC1=O)C(C)C [3BP-3478, Ac-Val-Tyr-[Cys(3MeBn)-Glu-pro-Asp-Trp-Leu-Thr-Trp-Glu(NH-Apr-DOTA)-Cys]-NH2] (Ac-VYCE[dP]DWLTWE(NH(CH2)3NHDOTA)C-NH2; linker 3-12 via mXylylene)
IC50 [1]: < 10 nM | t1/2 category (activity) [2]: A (t1/2>15.0 minutes) | Kd [2]: < 10 nM | % intact compound remaining after 24 h incubation [4]: 63% | % intact compound remaining (incubation time) [3]: >95%

CC(=O)N[C@H](C(=O)N[C@@H](Cc1ccc(O)cc1)C(=O)N[C@H]1CSCc2cccc(c2)CSC[C@@H](C(N)=O)NC(=O)[C@H](C)NC(=O)[C@H](Cc2c[nH]c3ccccc23)NC(=O)[C@H]([C@@H](C)O)NC(=O)C2(CCCCC2)NC(=O)[C@H](Cc2c[nH]c3ccccc23)NC(=O)[C@H](CC(=O)O)NC(=O)[C@H]2CCCN2C(=O)[C@H](CCC(=O)O)NC1=O)C(C)C [3BP-3503] (Ac-VYCE[dP]DW[Ac6c]TWAC-NH2; linker 3-12 via mXylylene)
IC50 [1]: < 10 nM | remaining at 24 h, 10 μM (NEP): > 95% | remaining at 4 h, […] [3]: > 95%

CC(C)C[C@@H]1NC(=O)[C@H](Cc2cccc(NC(=O)CCCS(N)(=O)=O)c2)NC(=O)[C@H](CC(=O)O)NC(=O)[C@H]2CCCN2C(=O)[C@H](CCC(=O)O)NC(=O)[C@@H](NC(=O)[C@H](CCC(N)=O)NC(=O)CN2CCN(C(=O)CN3CCN(CC(=O)O)CCN(CC(=O)O)CCN(CC(=O)O)CC3)CC2)CSCc2cccc(c2)CSC[C@@H](C(N)=O)NC(=O)[C@H](CO)NC(=O)[C@H](Cc2c[nH]c3ccccc23)NC(=O)[C@H]([C@@H](C)O)NC1=O [^natGa-DPI-4452, metal not drawn]
affinity of binding to CAIX (human CAIX): subnanomolar affinity

CC(=O)N[C@@H](CCCCNC(=O)CN1CCN(CC(=O)O)CCN(CC(=O)O)CCN(CC(=O)O)CC1)C(=O)N[C@H](C(=O)N[C@@H](Cc1ccc(O)cc1)C(=O)N[C@H]1CSCc2cccc(c2)CSC[C@@H](C(N)=O)NC(=O)[C@H](C)NC(=O)[C@H](Cc2c[nH]c3ccccc23)NC(=O)[C@H]([C@@H](C)O)NC(=O)[C@H](CC(C)C)NC(=O)[C@H](Cc2c[nH]c3ccccc23)NC(=O)[C@H](CC(=O)O)NC(=O)[C@H]2CCCN2C(=O)[C@H](CCC(=O)O)NC1=O)C(C)C [3BP-3427] (Ac-K(DOTA)VYCE[dP]DWLTWAC-NH2; linker 4-13 via mXylylene)
IC50 [1]: < 10 nM | % intact compound remaining after 24 h incubation [4]: >95% | % intact compound remaining (incubation time) [3]: >95%

CC(C)C[C@@H]1NC(=O)[C@H](Cc2c[nH]c3ccccc23)NC(=O)[C@H](CC(=O)O)NC(=O)[C@H]2CCCN2C(=O)[C@H](CCC(=O)O)NC(=O)[C@@H](NC(=O)[C@H](Cc2ccc(O)cc2)NC(=O)[C@@H](NC(=O)CN2CCC(NC(=O)CN3CCN(CC(=O)O)CCN(CC(=O)O)CCN(CC(=O)O)CC3)CC2)C(C)C)CSCc2cccc(c2)CSC[C@@H](C(N)=O)NC(=O)[C@H](C)NC(=O)[C@H](Cc2c[nH]c3ccccc23)NC(=O)[C@H]([C@@H](C)O)NC1=O [3BP-3432] ({DOTA}-[X2]VYCE[dP]DWLTWAC-NH2; linker 4-13 via mXylylene)
IC50 [1]: < 10 nM | t1/2 category (activity) [2]: A (t1/2>15.0 minutes) | Kd [2]: < 10 nM | % intact compound remaining after 24 h incubation [4]: >95% | % intact compound remaining (incubation time) [3]: 98%

CC(=O)N[C@H](C(=O)N[C@@H](Cc1ccc(O)cc1)C(=O)N[C@H]1CSCc2cccc(c2)CSC[C@@H](C(N)=O)NC(=O)[C@H](C)NC(=O)[C@H](Cc2c[nH]c3ccccc23)NC(=O)[C@H]([C@@H](C)O)NC(=O)[C@H](CC(C)C)NC(=O)[C@H](Cc2c[nH]c3ccccc23)NC(=O)[C@H](CC(=O)O)NC(=O)CNC(=O)[C@H](CCC(=O)O)NC1=O)C(C)C [3BP-3058] (Ac-VYCEGDWLTWAC-NH2; linker 3-12 via mXylylene)
IC50 [1]: < 10 nM | t1/2 category (activity) [2]: C (t1/2 between 2.1 and 5.0 minutes) | Kd [2]: < 10 nM | remaining at 24 h, 10 μM (NEP): > 95% | remaining at 4 h, […] [3]: 95%

CC(=O)N[C@H](C(=O)N[C@@H](Cc1ccc(O)cc1)C(=O)N[C@H]1CSCc2cccc(c2)CSC[C@@H](C(N)=O)NC(=O)[C@H](CO)NC(=O)[C@H](Cc2c[nH]c3ccccc23)NC(=O)[C@H]([C@@H](C)O)NC(=O)[C@H](CC(C)(C)C)NC(=O)[C@H](Cc2c[nH]c3ccccc23)NC(=O)[C@H](CC(=O)O)NC(=O)[C@H]2CCCN2C(=O)[C@H](CCC(=O)O)NC1=O)C(C)C [3BP-3491] (Ac-VYCE[dP]DW[tBuAla]TWSC-NH2; linker 3-12 via mXylylene)
IC50 [1]: < 10 nM | remaining at 24 h, 10 μM (NEP): > 95% | remaining at 4 h, […] [3]: > 95%

CC(C)C[C@@H]1NC(=O)[C@H](Cc2c[nH]c3ccccc23)NC(=O)[C@H](CC(=O)O)NC(=O)CNC(=O)[C@H](CCC(=O)O)NC(=O)[C@@H](NC(=O)[C@H](Cc2ccc(O)cc2)NC(=O)[C@@H](NC(=O)CCC(=O)NCCCOCCOCCOCCCNC(=O)CN2CCN(CC(=O)O)CCN(CC(=O)O)CCN(CC(=O)O)CC2)C(C)C)CSCc2cccc(c2)CSC[C@@H](C(N)=O)NC(=O)[C@H](CCC(N)=O)NC(=O)[C@H](Cc2c[nH]c3ccccc23)NC(=O)[C@H]([C@@H](C)O)NC1=O [3BP-2959] ({X3-Suc}-VYCEGDWLTWQC-NH2; linker 3-12 via mXylylene)
IC50 [1]: < 10 nM | t1/2 category (activity) [2]: D (t1/2≤2.0 minutes) | % intact compound remaining after 24 h incubation [4]: >95% | % intact compound remaining (incubation time) [3]: >95%

CC(=O)N[C@H](C(=O)N[C@@H](Cc1ccc(O)cc1)C(=O)N[C@H]1CSCc2cccc(c2)CSC[C@@H](C(=O)NCCCCCNC(=O)CN2CCN(CC(=O)O)CCN(CC(=O)O)CCN(CC(=O)O)CC2)NC(=O)[C@H](C)NC(=O)[C@H](Cc2c[nH]c3ccccc23)NC(=O)[C@H]([C@@H](C)O)NC(=O)[C@H](CC(C)C)NC(=O)[C@H](Cc2c[nH]c3ccccc23)NC(=O)[C@H](CC(=O)O)NC(=O)[C@H]2CCCN2C(=O)[C@H](CCC(=O)O)NC1=O)C(C)C [3BP-3434, Ac-Val-Tyr-[Cys(3MeBn)-Glu-pro-Asp-Trp-Leu-Thr-Trp-Ala-Cys]-Ape-NH-DOTA] (Ac-VYCE[dP]DWLTWAC-{NH(CH2)5NHDOTA}; linker 3-12 via mXylylene)
IC50 [1]: < 10 nM | % intact compound remaining after 24 h incubation [4]: >95% | % intact compound remaining (incubation time) [3]: >95%
